The structures appear in SMILES notation.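 Following 48 hours of exposure in 96-well plates, responses at five concentrations were used to interpolate endpoints linearly. At the TGI there is no net growth.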

The subject of the first experiment is HCT-15 colon. The experiment can be described thus: growth of human tumour cells (NCI), 48 h.
On to `CCC1(c2ccccc2)C(=O)N=C(c2ccccc2)N1CCc1ccccc1` (stereo unspecified), for which the TGI was greater than 100 µM.

For `COc1ccc(C2SCC(=O)N2c2ccc(-c3ccc(-n4c(-c5ccccc5)nc5ccccc5c4=O)cc3)cc2)cc1OC` (stereo unspecified), the TGI is greater than 100 µM.

For `C=CCC1(OCc2ccccc2)C(=O)C(=O)OC1C1COC(C)(C)O1` (stereo unspecified), the TGI is greater than 100 µM.

A further experiment deals with SF-268 CNS. The experiment can be described thus: growth of human tumour cells (NCI), 48 h.
For `COc1cc2c(cc1OC)C1C=NC(C2)c2cc(OC)c(OC)cc21` (stereo unspecified), the TGI is greater than 100 µM.

`CCC1(c2ccccc2)C(=O)N=C(c2ccccc2)N1CCc1ccccc1` (stereo unspecified): the TGI is greater than 100 µM.

`COc1ccc(C2SCC(=O)N2c2ccc(-c3ccc(-n4c(-c5ccccc5)nc5ccccc5c4=O)cc3)cc2)cc1OC` (stereo unspecified) registered a TGI greater than 100 µM.

`C=CCC1(OCc2ccccc2)C(=O)C(=O)OC1C1COC(C)(C)O1` (stereo unspecified) showed a TGI greater than 100 µM.

A further experiment concerns DU-145 prostate. In words: growth of human tumour cells (NCI), 48 h.
The compound `COc1cc2c(cc1OC)C1C=NC(C2)c2cc(OC)c(OC)cc21` (stereo unspecified) displayed a TGI greater than 100 µM.

As to `CCC1(c2ccccc2)C(=O)N=C(c2ccccc2)N1CCc1ccccc1` (stereo unspecified), the TGI is greater than 100 µM.

Take `COc1ccc(C2SCC(=O)N2c2ccc(-c3ccc(-n4c(-c5ccccc5)nc5ccccc5c4=O)cc3)cc2)cc1OC` (stereo unspecified): the TGI is greater than 100 µM.

In turn, `C=CCC1(OCc2ccccc2)C(=O)C(=O)OC1C1COC(C)(C)O1` (stereo unspecified) yielded a TGI greater than 100 µM.

A further experiment concerns HCC-2998 colon. In words: growth of human tumour cells (NCI), 48 h.
Turning to `COc1cc2c(cc1OC)C1C=NC(C2)c2cc(OC)c(OC)cc21` (stereo unspecified), the TGI is greater than 100 µM.

On to `CCC1(c2ccccc2)C(=O)N=C(c2ccccc2)N1CCc1ccccc1` (stereo unspecified), for which the TGI was greater than 100 µM.

As for `C=CCC1(OCc2ccccc2)C(=O)C(=O)OC1C1COC(C)(C)O1` (stereo unspecified), the TGI was greater than 100 µM.

The subject of the next experiment is HOP-62 NSCLC. The experiment can be described thus: growth of human tumour cells (NCI), 48 h.
In the case of `COc1cc2c(cc1OC)C1C=NC(C2)c2cc(OC)c(OC)cc21` (stereo unspecified), the TGI is greater than 100 µM.

Consider `CCC1(c2ccccc2)C(=O)N=C(c2ccccc2)N1CCc1ccccc1` (stereo unspecified), for which the TGI is greater than 100 µM.

Turning to `COc1ccc(C2SCC(=O)N2c2ccc(-c3ccc(-n4c(-c5ccccc5)nc5ccccc5c4=O)cc3)cc2)cc1OC` (stereo unspecified), the TGI stood at 37.6 µM.

Take `C=CCC1(OCc2ccccc2)C(=O)C(=O)OC1C1COC(C)(C)O1` (stereo unspecified): the TGI is greater than 100 µM.

Another experiment concerns SR leukemia. In words: growth of human tumour cells (NCI), 48 h.
`COc1cc2c(cc1OC)C1C=NC(C2)c2cc(OC)c(OC)cc21` (stereo unspecified) returned a TGI greater than 100 µM.

For `CCC1(c2ccccc2)C(=O)N=C(c2ccccc2)N1CCc1ccccc1` (stereo unspecified), the TGI is greater than 100 µM.

`COc1ccc(C2SCC(=O)N2c2ccc(-c3ccc(-n4c(-c5ccccc5)nc5ccccc5c4=O)cc3)cc2)cc1OC` (stereo unspecified) registered a TGI greater than 100 µM.

As for `C=CCC1(OCc2ccccc2)C(=O)C(=O)OC1C1COC(C)(C)O1` (stereo unspecified), the TGI is greater than 100 µM.

For another experiment, the system named is MDA-MB-435. The experiment can be described thus: growth of human tumour cells (NCI), 48 h.
`COc1cc2c(cc1OC)C1C=NC(C2)c2cc(OC)c(OC)cc21` (stereo unspecified) gave a TGI greater than 100 µM.

Compound `CCC1(c2ccccc2)C(=O)N=C(c2ccccc2)N1CCc1ccccc1` (stereo unspecified) showed a TGI greater than 100 µM.

In the case of `COc1ccc(C2SCC(=O)N2c2ccc(-c3ccc(-n4c(-c5ccccc5)nc5ccccc5c4=O)cc3)cc2)cc1OC` (stereo unspecified), the TGI is greater than 100 µM.

For the compound `C=CCC1(OCc2ccccc2)C(=O)C(=O)OC1C1COC(C)(C)O1` (stereo unspecified), the TGI was greater than 100 µM.

The subject of the next experiment is HS 578T breast. The experiment can be described thus: growth of human tumour cells (NCI), 48 h.
As to `COc1cc2c(cc1OC)C1C=NC(C2)c2cc(OC)c(OC)cc21` (stereo unspecified), the TGI is greater than 100 µM.

In turn, `CCC1(c2ccccc2)C(=O)N=C(c2ccccc2)N1CCc1ccccc1` (stereo unspecified) displayed a TGI greater than 100 µM.

Compound `COc1ccc(C2SCC(=O)N2c2ccc(-c3ccc(-n4c(-c5ccccc5)nc5ccccc5c4=O)cc3)cc2)cc1OC` (stereo unspecified) came in with a TGI greater than 100 µM.

Take `C=CCC1(OCc2ccccc2)C(=O)C(=O)OC1C1COC(C)(C)O1` (stereo unspecified): the TGI is greater than 100 µM.

Another experiment has as its system RXF 393 renal. The experiment can be described thus: growth of human tumour cells (NCI), 48 h.
On to `CCC1(c2ccccc2)C(=O)N=C(c2ccccc2)N1CCc1ccccc1` (stereo unspecified), for which the TGI was greater than 100 µM.

`COc1ccc(C2SCC(=O)N2c2ccc(-c3ccc(-n4c(-c5ccccc5)nc5ccccc5c4=O)cc3)cc2)cc1OC` (stereo unspecified): the TGI was greater than 100 µM.

Regarding `C=CCC1(OCc2ccccc2)C(=O)C(=O)OC1C1COC(C)(C)O1` (stereo unspecified), the TGI was greater than 100 µM.

The next experiment has as its system CCRF-CEM leukemia. In words: growth of human tumour cells (NCI), 48 h.
Consider `CCC1(c2ccccc2)C(=O)N=C(c2ccccc2)N1CCc1ccccc1` (stereo unspecified), for which the TGI is greater than 100 µM.

Regarding `COc1ccc(C2SCC(=O)N2c2ccc(-c3ccc(-n4c(-c5ccccc5)nc5ccccc5c4=O)cc3)cc2)cc1OC` (stereo unspecified), the TGI worked out at 92.5 µM.

The compound `C=CCC1(OCc2ccccc2)C(=O)C(=O)OC1C1COC(C)(C)O1` (stereo unspecified) showed a TGI greater than 100 µM.

Another experiment deals with LOX IMVI melanoma. The experiment can be described thus: growth of human tumour cells (NCI), 48 h.
With `COc1cc2c(cc1OC)C1C=NC(C2)c2cc(OC)c(OC)cc21` (stereo unspecified), the TGI is greater than 100 µM.

`CCC1(c2ccccc2)C(=O)N=C(c2ccccc2)N1CCc1ccccc1` (stereo unspecified) displayed a TGI greater than 100 µM.

Turning to `COc1ccc(C2SCC(=O)N2c2ccc(-c3ccc(-n4c(-c5ccccc5)nc5ccccc5c4=O)cc3)cc2)cc1OC` (stereo unspecified), the TGI came out at 51.5 µM.

`C=CCC1(OCc2ccccc2)C(=O)C(=O)OC1C1COC(C)(C)O1` (stereo unspecified) had a TGI greater than 100 µM.

For the next experiment, the system named is RPMI-8226 leukemia. In words: growth of human tumour cells (NCI), 48 h.
`COc1cc2c(cc1OC)C1C=NC(C2)c2cc(OC)c(OC)cc21` (stereo unspecified) had a TGI greater than 100 µM.

In turn, `CCC1(c2ccccc2)C(=O)N=C(c2ccccc2)N1CCc1ccccc1` (stereo unspecified) yielded a TGI greater than 100 µM.

For the compound `COc1ccc(C2SCC(=O)N2c2ccc(-c3ccc(-n4c(-c5ccccc5)nc5ccccc5c4=O)cc3)cc2)cc1OC` (stereo unspecified), the TGI is greater than 100 µM.

Compound `C=CCC1(OCc2ccccc2)C(=O)C(=O)OC1C1COC(C)(C)O1` (stereo unspecified) came in with a TGI greater than 100 µM.

For a further experiment, the system named is SF-539 CNS. The experiment can be described thus: growth of human tumour cells (NCI), 48 h.
`COc1cc2c(cc1OC)C1C=NC(C2)c2cc(OC)c(OC)cc21` (stereo unspecified) came in with a TGI greater than 100 µM.

In turn, `CCC1(c2ccccc2)C(=O)N=C(c2ccccc2)N1CCc1ccccc1` (stereo unspecified) gave a TGI greater than 100 µM.

For the compound `COc1ccc(C2SCC(=O)N2c2ccc(-c3ccc(-n4c(-c5ccccc5)nc5ccccc5c4=O)cc3)cc2)cc1OC` (stereo unspecified), the TGI was greater than 100 µM.

In turn, `C=CCC1(OCc2ccccc2)C(=O)C(=O)OC1C1COC(C)(C)O1` (stereo unspecified) returned a TGI greater than 100 µM.

The next experiment has as its system OVCAR-5 ovarian. The experiment can be described thus: growth of human tumour cells (NCI), 48 h.
In the case of `COc1cc2c(cc1OC)C1C=NC(C2)c2cc(OC)c(OC)cc21` (stereo unspecified), the TGI was greater than 100 µM.

`CCC1(c2ccccc2)C(=O)N=C(c2ccccc2)N1CCc1ccccc1` (stereo unspecified): the TGI is greater than 100 µM.

The compound `C=CCC1(OCc2ccccc2)C(=O)C(=O)OC1C1COC(C)(C)O1` (stereo unspecified) yielded a TGI greater than 100 µM.

For the next experiment, the system named is NCI-H23 lung. The experiment can be described thus: growth of human tumour cells (NCI), 48 h.
`CCC1(c2ccccc2)C(=O)N=C(c2ccccc2)N1CCc1ccccc1` (stereo unspecified) came in with a TGI greater than 100 µM.

`COc1ccc(C2SCC(=O)N2c2ccc(-c3ccc(-n4c(-c5ccccc5)nc5ccccc5c4=O)cc3)cc2)cc1OC` (stereo unspecified): the TGI was greater than 100 µM.

As for `C=CCC1(OCc2ccccc2)C(=O)C(=O)OC1C1COC(C)(C)O1` (stereo unspecified), the TGI was greater than 100 µM.

Another experiment has as its system T-47D breast. The experiment can be described thus: growth of human tumour cells (NCI), 48 h.
`COc1cc2c(cc1OC)C1C=NC(C2)c2cc(OC)c(OC)cc21` (stereo unspecified) came in with a TGI greater than 100 µM.

For `CCC1(c2ccccc2)C(=O)N=C(c2ccccc2)N1CCc1ccccc1` (stereo unspecified), the TGI was greater than 100 µM.

The values are drawn from PubChem BioAssay (NCI).
